Patent US9090605B2, “Substituted 5-,6- and 7-membered heterocycles, medicaments containing such compounds, and their use” (Vitae Pharmaceuticals, Inc., priority 2010, dated 2015)

Target: 11β-HSD1 (Homo sapiens, UniProt P28845)
Assay: Inhibition of a microsomal preparation of 11β-HSD1, scintillation proximity assay, microsomes from CHO cells overexpressing human 11β-HSD1 (biological test example 2)
Type: biochemical
Parameters: expressed in transfected cells; host or cells: CHO cells (microsomes isolated from them)
Settings: microsomes from CHO cells overexpressing human 11β-HSD1, SPA, [3H]cortisone, 90 minutes at room temperature; read-out: IC50, inhibitory activity on 11β-HSD 1
Protocol: All reactions were carried out at room temperature in 96 well clear flexible PET Microbeta plates (PerkinElmer). The assay begins by dispensing 49 μl of substrate solution [50 mM HEPES, pH 7.4, 100 mM KCl, 5 mM NaCl, 2 mM MgCl2, 2 mM NADPH and 160 nM [^3H]cortisone (1 Ci/mmol)] and mixing in 1 μL of the test compounds in dimethyl sulfoxide previously diluted in half-log increments (8 points) starting at 0.1 mM. After a 10 minute pre-incubation, 50 μL of enzyme solution containing microsomes isolated from CHO cells overexpressing human 11β-HSD1 (10-20 μg/ml of total protein) was added, and the plates were incubated for 90 minutes at room temperature. The reaction was stopped by adding 50 μl of the SPA beads suspension containing 10 μM 18β-glycyrrhetinic acid, 5 mg/ml protein A coated YSi SPA beads (GE Healthcare) and 3.3 μg/ml of anti-cortisol antibody (East Coast Biologics) in Superblock buffer (Bio-Rad). The plates were shaken for 120 minutes at room temperature, and the SPA signal corresponding to [^3H]cortisol was measured on a Microbeta plate reader.

11β-HSD1, sequence (P28845 whole entry): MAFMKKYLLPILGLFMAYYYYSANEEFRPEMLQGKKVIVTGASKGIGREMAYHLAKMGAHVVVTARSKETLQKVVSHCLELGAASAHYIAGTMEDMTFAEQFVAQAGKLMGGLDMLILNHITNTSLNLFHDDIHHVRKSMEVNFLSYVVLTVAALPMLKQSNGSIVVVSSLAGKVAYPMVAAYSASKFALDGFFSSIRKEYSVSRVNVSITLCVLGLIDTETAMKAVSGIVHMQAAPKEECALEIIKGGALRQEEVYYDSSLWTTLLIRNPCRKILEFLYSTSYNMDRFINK

Structure (SMILES) | IC50 [nM]
C[C@@H](c1ccc(-c2cnc(N3CC(O)C3)nc2)cc1)N1CC[C@](CC(C)(C)O)(c2ccccc2)OC1=O [Example 35, (S)-6-(2-hydroxy-2-methylpropyl)-3-((S)-1-{4-[2-(3-hydroxyazetidin-1-yl)pyrimidin-5-yl]phenyl}ethyl)-6-phenyl-1,3-oxazinan-2-one] | 2.8
C[C@@H](c1ccc(-c2ccnc(N3CCOCC3)n2)cc1)N1CC[C@](CC(C)(C)O)(c2ccccc2)OC1=O [Example 38, (S)-6-(2-hydroxy-2-methylpropyl)-3-{(S)-1-[4-(2-morpholinopyrimidin-4-yl)phenyl]ethyl}-6-phenyl-1,3-oxazinan-2-one] | 2.3
C[C@@H](c1ccc(-c2cccc(N3CCCCC3=O)n2)cc1)N1CC[C@](CC(C)(C)O)(c2ccccc2)OC1=O [Example 39, (S)-6-(2-hydroxy-2-methylpropyl)-3-((S)-1-{4-[6-(2-oxopiperidin-1-yl)pyridin-2-yl]phenyl}ethyl)-6-phenyl-1,3-oxazinan-2-one] | 3.7
C[C@@H](c1ccc(-c2cccc(-n3ccccc3=O)n2)cc1)N1CC[C@](CC(C)(C)O)(c2ccccc2)OC1=O [Example 41, (S)-6-(2-hydroxy-2-methylpropyl)-3-((S)-1-{4-[6-(2-oxopyridin-1 (2H)-yl)pyridin-2-yl]phenyl}ethyl)-6-phenyl-1,3-oxazinan-2-one] | 2.3
C[C@@H](c1ccc(-c2ccc(C3(C(N)=O)CC3)nc2)cc1)N1CC[C@](CC(C)(C)O)(c2ccccc2)NC1=O [Example 49, 1-[5-(4-{(S)-1-[(S)-4-(2-Hydroxy-2-methyl-propyl)-2-oxo-4-phenyl-tetrahydro-pyrimidin-1-yl]-ethyl}-phenyl)-pyridin-2-yl]-cyclopropanecarboxylic acid amide] | 1.5
C[C@@H](c1ccc(-c2ccc(=O)n(C3COC3)c2)cc1)N1CC[C@](CC(C)(C)O)(c2ccccc2)OC1=O [Example 58, (S)-6-(2-Hydroxy-2-methyl-propyl)-3-{(S)-1-[4-(1-oxetan-3-yl-6-oxo-1,6-dihydro-pyridin-3-yl)-phenyl]-ethyl}-6-phenyl-[1,3]oxazinan-2-one] | 4.3
C[C@@H](c1ccc(-c2ccc(C3(C(N)=O)CC3)nc2)cc1)N1CC[C@@](CC2CC2)(CC(C)(C)O)OC1=O [Example 59, 1-[5-(4-{(S)-1-[(S)-6-Cyclopropylmethyl-6-(2-hydroxy-2-methyl-propyl)-2-oxo-[1,3]oxazinan-3-yl]-ethyl}-phenyl)-pyridin-2-yl]-cyclopropanecarboxylic acid amide] | 6.5

These reach a lower IC50. Values come first.

IC50 [nM] | Structure (SMILES)
1 | C[C@@H](c1ccc(-c2cnc(N3CCC3)nc2)cc1)N1CC[C@](CC(C)(C)O)(c2ccccc2)OC1=O [Example 34, 3-((S)-1-{4-[2-(azetidin-1-yl)pyrimidin-5-yl)phenyl]ethyl}-(S)-6-(2-hydroxy-2-methylpropyl)-6-phenyl-1,3-oxazinan-2-one]
0.8 | C[C@@H](c1ccc(-c2cnc(-n3ccccc3=O)s2)cc1)N1CC[C@](CC(C)(C)O)(c2ccccc2)OC1=O [Example 36, (S)-6-(2-hydroxy-2-methylpropyl)-3-((S)-1-{4-[2-(2-oxopyridin-1 (2H)-yl)thiazol-5-yl]phenyl}ethyl)-6-phenyl-1,3-oxazinan-2-one]
0.5 | C[C@@H](c1ccc(-c2csc(-n3ccccc3=O)n2)cc1)N1CC[C@](CC(C)(C)O)(c2ccccc2)OC1=O [Example 37, (S)-6-(2-hydroxy-2-methylpropyl)-3-((S)-1-{4-[2-(2-oxopyridin-1(2H)-yl)thiazol-4-yl]phenyl}ethyl)-6-phenyl-1,3-oxazinan-2-one]
1.1 | C[C@@H](c1ccc(-c2cccc(N3CCOCC3)n2)cc1)N1CC[C@](CC(C)(C)O)(c2ccccc2)OC1=O [Example 40, (S)-6-(2-hydroxy-2-methylpropyl)-3-{(S)-1-[4-(6-morpholinopyridin-2-yl)phenyl]ethyl}-6-phenyl-1,3-oxazinan-2-one]
